The record followed here is paper PMC12734371, “Synthesis, Anti-Tumour, and Antibacterial Activities of Monocarbonyl Curcumin Analogues of Piperidones” (International Journal of Molecular Sciences, 2025).

In brackets after ≈: the same amount, converted by molar mass.

As a reminder, the IC50 is the concentration that gives 50% inhibition. What is called MIC is the lowest concentration that inhibits growth of the organism. Lower therefore signals greater potency.

Assay [1] deals with L02 cells. Put plainly: MTT assay, toxicity to human normal liver cells. The assay is classed as cell-based. Conditions: 24 h, mean ± s, n = 3. As for the experimental part:
The cells were passaged to the fourth generation of L02 cells, and the cell suspension containing about 5 × 10^3 cells was added to each well of the 96-well plate and cultured in a cell culture incubator for 24 h. The old medium was discarded, and different concentrations of liquid medicine (6 porous and 3 plates for each concentration) were added and incubated for 24 h. The old medium was discarded, 10% of 5 mg/mL MTT working solution was added in the dark, and the cells were incubated in a cell incubator for 4 h. The old medium was discarded, 100 μL DMSO was added to each well, and 100 RPM was oscillated on an air shaker for 10 min. The OD value was measured at 490 nm with a multifunctional microplate reader. According to the OD value, the inhibition rate of different piperidone monocarbonyl curcumin analogues on L02 cells was calculated according to Formula (1), and IC50 was calculated by Graph Pad Prism 8.0.

The subject of assay [2] is A549 cells. Put plainly: CCK-8 growth inhibition (dose and time action curves). The class given is cell-based, human. The following applies: different concentrations, 4-72 h. As for the experimental part: A549 cells in the logarithmic growth phase and in a good growth state were collected. After routine digestion and centrifugation, the cells were diluted with DMEM low-glucose complete medium, suspended in a single cell state, and inoculated in 96-well plates. Each well was inoculated with 100 μL cell suspension containing 5 × 10^3 cells. The 96-well plate was shaken to disperse the cells evenly at the bottom of the cell orifice plate, and the cells were cultured in the cell incubator for 24 h. The old medium was discarded, complete medium containing different concentrations of liquid medicine was added, and the culture continued in the cell culture incubator. At 4, 6, 12, 24, 48, and 72 h, the old medium was discarded and 100 μL of medium containing 10% CCK-8 was added. The medium was placed in the cell incubator and continued to incubate for 2 h. The OD value was measured at 450 nm with an enzyme calibration and the inhibition rate of different compounds at different concentrations was calculated. GraphPad Prism 8.0 was used to plot the inhibition rate of cell growth at different concentrations of the five major compounds. The drug duration curves were plotted with time as the X-axis and inhibition rate as the Y-axis.

Assay [3] has as its system A549 cells. Put plainly: Cell wound scratch assay (migration). The following applies: 6 h; high, medium, and low concentrations. The class given is cell-based, human. The procedure: A549 cells in logarithmic phase were digested with 0.25% trypsin and blown to single cell suspension with a dropper. The cell density was adjusted to 5 × 10^5 cells/mL. The cells were inoculated on 6-well plates, 2 mL per well, and cultured in a cell incubator at 37 °C, 5% CO2, and saturated humidity for 24 h until the gaps were basically fused. A 10 μL micro pipette tip was used to scratch vertically in a 6-well plate. After washing with PBS solution 3 times, the drug-containing medium was added, 2 mL per well, and three wells were set in each group. The culture plates were placed in a 5% CO2 incubator at 37 °C for 6 h and 24 h and observed and photographed with an inverted fluorescence microscope. The images were obtained by NIS Elements Viewer 4.2.0, and the scratch area and width were calculated. The cell migration rate was calculated by Formula (2):[Cell migration rate (%) = (0 h scratch area − scratch area at different times)/0 h scratch area × 100%](2)

In assay [4] the test system is A549 cells. Put plainly: MTT assay, inhibition of tumour cell growth. The assay is classed as cell-based, human. Conditions: 24 h, mean ± s. The procedure:
(§1) The tumour cell suspension in logarithmic growth phase, containing about 5 × 10^3 cells, was taken and seeded onto a 96-well plate and gently shaken to disperse the cells evenly at the bottom of the plate. The cells were incubated in a constant temperature (37 °C) incubator for 24 h. The old medium was discarded, and 100 μL of the prepared working solution of piperidinone monocarbonyl curcumin analogues at different concentrations was added, and the cells were incubated in a constant temperature incubator for 24 h. Blank medium wells, blank cell wells, and 0.9% DMSO (highest content) wells were set up, with 6 multi-well and 3 multi-plates for each concentration. The discarded old medium was absorbed, and 100 μL of 10% 5 mg/mL MTT working solution was added to each well (operated away from light) and placed in a cell incubator for further incubation for 4 h. The old medium was discarded, and 100 μL of DMSO was added to each well and shaken in an air shaker at 100 RPM for 10 min. The absorbance of the OD value was measured at 490 nm by a multifunctional microplate analyzer. According to Formula (1), the inhibition rates of different piperidones monocarbonyl curcumin analograms on 4 tumour cells were calculated, and IC50 was calculated by GraphPad Prism 8.0:Inhibition rate (%) = (OD blank cell group − OD administration group)/OD blank cell group(1)
For orientation: Formazan colour is commonly taken as a measure of viable cells.

Assay [5] has as its system MCF-7 cells. Put plainly: MTT assay, inhibition of tumour cell growth. The assay is classed as cell-based, human. Conditions: 24 h, mean ± s, n = 3. The procedure: as §1
Assay [6] relates to Hela cells. Put plainly: MTT assay, inhibition of tumour cell growth. The class given is cell-based, human. Conditions: 24 h, mean ± s, n = 3. The procedure:
as §1

Assay [7] deals with HepG2 cells. Put plainly: MTT assay, inhibition of tumour cell growth. The following applies: 24 h, mean ± s, n = 3. The class given is cell-based, human. The procedure: as §1
The test system of assay [8] is MRSA. Nature of the assay: Broth microdilution inhibition test and MIC. The assay is classed as cell-based, methicillin-resistant Staphylococcus aureus. The procedure:
Then, the MIC values of 100% compounds at the maximum inhibitory concentration were obtained by the broth microdilution method. The specific experiments are as follows: First, in the 96-well plate, add 100 μL of compound working solution from column 2 to column 8, with concentrations decreasing from high to low, repeating each concentration 6 times. Add 100 μL of NB nutrient broth containing 1% DMSO to column 9, and 100 μL of blank NB nutrient broth to columns 10 and 11. Then, add 10 μL of bacterial suspension to each well from columns 2 to 10. Place the 96-well plate in a 37 °C incubator for 16 h at 100 rpm and measure the absorbance at 600 nm by microplate reader. Columns 2 to 9 represent the drug treatment group, column 10 is the negative control group, and column 11 is the blank control group. The minimum concentration that inhibits bacterial growth is the MIC value of the compound: Bacterial inhibition rate (%) = (OD administration − OD control)/(ODcontrol − OD blank) (3)
For orientation: In broth dilution the organism is exposed to a series of concentrations in liquid medium.

Assay [9] deals with MRSA. Put plainly: AGAR plate zone of inhibition test (filter paper). The class given is cell-based, methicillin-resistant Staphylococcus aureus. The following applies: 160 μmol/L, 6 mm filter paper, 16 h, mean ± s, n = 3. As for the experimental part:
Based on the results of previous experiments, the promising compounds were selected, and the size of the inhibition zone at 160 μmol/L was determined. The specific operation was as follows: The nutrient agar medium, after high temperature sterilization, was poured into about 20 mL per 9 cm plate in an ultra-clean bench and naturally cooled and solidified. Each plate was evenly coated with 100 μL MRSA bacterial suspension. The filter paper of 6 mm diameter soaked in the drug solution was dried by flame evaporation, and four tablets were placed in parallel into each plate, cultured in a constant temperature incubator at 37 °C for 16 h, and the size of the inhibition zone was measured.

Assay [10] relates to ERK (extracellular regulated protein kinases). Put plainly: Western blot, ERK level in A549 cells. Conditions: 10, 5, 2.5 μmol/L, 24 h. The assay is classed as cell-based, human. As for the experimental part:
(§2) A549 cells in logarithmic growth phase were seeded in 6-well plates at 1 × 10^6 cells/mL per well. The cells were cultured overnight in an incubator. Different concentrations of drug-containing medium of 2,5-2Cl, 2Br-5Cl, 2-Cl, 2-F, benzaldehyde ([…]), curcumin (20 μmol/L), and cisplatin (30 μmol/L) were added, and the blank control […] The RIPA cell lysis buffer containing protease inhibitors was added to the Petri dish to collect the proteins of each experimental group, and the supernatant was collected as a protein sample after ultrasonic centrifugation. Protein quantification was performed by the BCA method. A total of 20 μg protein was separated by 10% SDS-PAGE, and then the protein was transferred to a PVDF membrane. The membrane was blocked with 5% skim milk for 1 h, and the corresponding primary antibody was incubated at 4 °C overnight. After washing the membrane three times with TBST, the bands were incubated with the corresponding secondary antibodies at room temperature for 1 h. After cleaning the membrane with TBST 3 times, the darkroom was developed with ECL luminescence. Using GAPDH as an internal reference, the protein bands were analyzed by ImageJ 1.8.0.

Assay [11] relates to MRSA. Nature of the assay: Time inhibition curve against MRSA. The class given is cell-based, methicillin-resistant Staphylococcus aureus. The following applies: 160 μmol/L and 80 μmol/L. The procedure:
Based on the results of previous experiments, the promising compounds were selected. According to the administration method under ‘2.3.2’, the absorbance values of the promising compounds at 600 nm at different concentrations of bacteria at 4, 14, 18, and 24 h were measured by a microplate reader, and the inhibitory effect of the compounds on MRSA at different time points was calculated. The time inhibition curve of the compound against MRSA was made with the abscissa as the time and the ordinate as the bacterial inhibition rate.

Assay [12] concerns A549 cells. Nature of the assay: Cell morphology by inverted microscope. The assay is classed as cell-based, human. Conditions: 5 μmol/L, 24 h. As for the experimental part: The cells were inoculated in a 6-well plate, and about 1 × 10^6 A549 cells in the logarithmic growth phase were inoculated in each well. After the cells were cultured in a constant temperature incubator for 24 h, the old medium was discarded, and five kinds of piperidone monocarbonyl curcumin analogue solution (5, 10, and 20 μmol/L), curcumin (10, 20, and 40 μmol/L), and 0.9% DMSO were added as the blank control group for 24 h, and then the cell morphology was observed by inverted microscope (200×).

The subject of assay [13] is A549 cells. Nature of the assay: Flow cytometry apoptosis (Annexin V/PI). The assay is classed as cell-based, human. Conditions: 24 h; 5, 2.5, 1.25 μmol/L. The procedure:
The A549 cells in logarithmic growth phase were inoculated in 6-well plates at 1 × 10^6 cells. After resting in the incubator for 24 h, the cells were treated with different concentrations of drugs. The blank control group was added with the medium with the highest concentration of DMSO. After 24 h of culture, cells were collected, washed with PBS, transferred to a flow tube, and resuspended with 100 μL of 1 × Annexin V conjugate. Add 4 μL YF4/88-Annexin N and 5 μL PI working solution. The cells were incubated in the dark at room temperature for 10 min, transferred to a flow cytometer tube, added with 200 μL of 1 × Annexin V conjugate, and immediately detected by flow cytometry.

Assay [14] relates to AKT (protein kinase B). Put plainly: Western blot, AKT level in A549 cells. The assay is classed as cell-based, human. Conditions: 10, 5, 2.5 μmol/L, 24 h. The procedure: as §2
A general note: Immunoblotting shows a protein as a band on a membrane.

Turning to “3,5-Dibenzylidene-4-piperidone [Benzaldehyde]”, the IC50 was 52.4 ± 1.89 µM in assay [1]; 4.66 ± 2.39 µM in assay [4] (n = 3); below 5 µM in assay [4] (n = 3, listed as benzaldehyde); 5.88 ± 1.44 µM in assay [5]; 12.4 ± 2.91 µM in assay [6]; 10.3 ± 1.88 µM in [7]. Moreover, in assay [2], the “Inhibition of A549 cell growth (CCK-8)” value is on record as “weak at low concentrations”. The “Cell migration rate vs blank control (0.9% DMSO)” value (from here on “Cell migration rate … (0.9% DMSO)”) in assay [3] is “no statistical difference”.
With `O=C1C(=Cc2ccccc2Cl)CNCC1=Cc1ccccc1Cl` [2-Cl], the “Inhibition rate of MRSA” value in assay [8] (60 μmol/L) is “less than 100%”; in [8] (70 μmol/L), 100%. The “Inhibition of MRSA” value in assay [8] (160 μmol/L) was determined as 100%. The MIC in assay [8] (MRSA, broth microdilution) was determined as 70 µM (≈ 24.1 µg/mL). The “Diameter of Bacteriostatic Zone” value in [9] worked out at 14.67 ± 0.58 mm. For the same compound, in assay [10], the “ERK protein level vs control group” value is reported as “significantly lower”. The “Inhibition rate of MRSA over time” value in assay [11] (18 h) amounted to 100%; in assay [11] (24 h), 87.02%. Further, the IC50 was found to be 70.5 ± 1.85 µM in assay [1]; 4.81 ± 1.69 µM in assay [4] (n = 3); 5.7 ± 1.21 µM in [5]; 6.61 ± 1.93 µM in [6]; 8.53 ± 2.61 µM in assay [7]. For the same compound, in [3], the “Cell migration rate … (0.9% DMSO)” value is given as “no statistical difference”. Besides, in [12], the Cell morphology result is “most of the cells became round and loose”.
As to `O=C1C(=Cc2cc(Cl)ccc2Cl)CNCC1=Cc1cc(Cl)ccc1Cl` [2,5-2Cl], in [13], the “Apoptosis-inducing effect on A549 cells” value is “strongest”. The “ERK protein level vs control group” value in [10] is listed as “significantly lower”. The “Expression level of AKT protein vs control group” value in assay [14] is “most obvious”. Further, the IC50 in assay [1] came out at 48.6 ± 3.59 µM; in assay [4] (n = 3) it was 2.87 ± 2.09 µM; in [5] it was 4.72 ± 1.48 µM; in [6], 6.62 ± 2.1 µM; in [7] it was 9.66 ± 1.09 µM. In addition, the “Cell migration rate … (0.9% DMSO)” value in [3] is “no statistical difference”. In addition, the Cell morphology entry in assay [12] was “most of the cells became round and loose”.
